Assay results taken from US20260167656A1, “PHOSPHORAMIDATE COMPOUNDS AND USES THEREOF” (ALLORION THERAPEUTICS INC, priority 2022, published 2026).

Assays:
[1] = test system: non-small cell lung cancer cell line H460; assay: In vitro human cancer cell line cytotoxicity (proliferation) assay in H460, CellTiter-Glo, 72 hours; format: cell-based; settings: H460 cells, DMSO condition (no AKR1C3 inhibitor), read-out: CTG H460: Avg IC50 (nM) [Assay Condition: DMSO]
Experimental: Biological Example 1. In Vitro Human Cancer Cell Line Cytotoxicity Assay
IC50 values in nanomolar reported here were derived from in vitro proliferation assay data in non-small cell lung cancer cell line H460.
(§1) Specifically, exponentially growing cells were seeded at density of 3×10^3 cells per well in 96-well plate and incubated at 37° C. in 5% CO2, 95% air and 100% relative humidity for 24 hours before adding compounds. Compounds were solubilized in 100% DMSO at 10 mM. Compounds were added to the plate using Tecan D300e® digital Dispenser. After drug addition, the plates were incubated for an additional 72 hours at 37° C. in 5% CO2, 95% air and 100% relative humidity. At the end of the incubation, cell viability was quantified with CellTiter-Glo® assay.

[2] = test system: non-small cell lung cancer cell line H460; assay: H460 proliferation assay in the presence of 3 uM ASP9521 (AKR1C3 specific inhibitor); format: cell-based, human; settings: H460 cells, CellTiter-Glo, 72 hours, in the presence of 3 uM ASP9521 added 4 hours prior to compounds; read-out: CTG H460: Avg IC50 (nM) [Assay Condition: ASP9521]
Experimental: as §1
To further confirm that compounds were activated by human AKR1C3, H460 proliferation assay were also performed in the presence of 3 uM […], an AKR1C3 specific inhibitor. ASP9521 were added to the plates 4 hours prior to the addition of compounds.

CN(C(=O)c1cccc(Oc2c([N+](=O)[O-])ccc3c2CCC3OP(=O)(N2CC2)N2CC2)c1)c1cnn(C)c1 (racemic) [Example 251]
IC50 [1]: < 10 nM
IC50 [2]: 1090 nM

CN(C)C(=O)c1cc(Oc2c([N+](=O)[O-])ccc3c2CCC3OP(=O)(N2CC2)N2CC2)ccn1 (racemic) [Example 253]
IC50 [1]: < 10 nM
IC50 [2]: 697 nM

O=C(c1cc(Oc2c([N+](=O)[O-])ccc3c2CCC3OP(=O)(N2CC2)N2CC2)ccc1F)N1CCC1 (racemic) [Example 256]
IC50 [1]: < 10 nM
IC50 [2]: 1240 nM

O=[N+]([O-])c1ccc2c(c1Oc1ccc(-c3ccc(F)cn3)cc1)CCC2OP(=O)(N1CC1)N1CC1 (racemic) [Example 276]
IC50 [1]: < 10 nM
IC50 [2]: 1340 nM

Cc1cccc(-c2ccc(Oc3c([N+](=O)[O-])ccc4c3CCC4OP(=O)(N3CC3)N3CC3)cc2)n1 (racemic) [Example 277]
IC50 [1]: < 10 nM
IC50 [2]: 1530 nM

Cc1ccnc(-c2ccc(Oc3c([N+](=O)[O-])ccc4c3CCC4OP(=O)(N3CC3)N3CC3)cc2)n1 (racemic) [Example 280]
IC50 [1]: < 10 nM
IC50 [2]: 1300 nM

Cc1cncc(-c2ccc(Oc3c([N+](=O)[O-])ccc4c3CCC4OP(=O)(N3CC3)N3CC3)cc2)n1 (racemic) [Example 281]
IC50 [1]: < 10 nM
IC50 [2]: 787 nM

O=[N+]([O-])c1ccc2c(c1Oc1ccc(-c3ncccn3)cc1)CCC2OP(=O)(N1CC1)N1CC1 (racemic) [Example 282]
IC50 [1]: < 10 nM
IC50 [2]: 1240 nM

Cn1cc(-c2cccc(Oc3c([N+](=O)[O-])ccc4c3CCC4OP(=O)(N3CC3)N3CC3)c2)cn1 (racemic) [Example 299]
IC50 [1]: < 10 nM
IC50 [2]: 744 nM

O=C1CCCCN1c1cccc(Oc2c([N+](=O)[O-])ccc3c2CCC3OP(=O)(N2CC2)N2CC2)c1 (racemic) [Example 404]
IC50 [2]: 1020 nM

O=C1COCCN1c1cccc(Oc2c([N+](=O)[O-])ccc3c2CCC3OP(=O)(N2CC2)N2CC2)c1 (racemic) [Example 405]
IC50 [2]: 871 nM

O=c1ccccn1-c1cccc(Oc2c([N+](=O)[O-])ccc3c2CCC3OP(=O)(N2CC2)N2CC2)c1 (racemic) [Example 406]
IC50 [2]: 1320 nM

Cn1cc(-c2ccc(Oc3cc4c(cc3[N+](=O)[O-])CCC4OP(=O)(N3CC3)N3CC3)cc2)cn1 (single isomer, unassigned) [Example 521]
IC50 [2]: 1950 nM

O=C(c1cccc(Oc2c([N+](=O)[O-])ccc3c2CCC3OP(=O)(N2CC2)N2CC2)c1)N1CC(F)(F)C1 (stereo not drawn) [Example 235]
IC50 [2]: 717 nM

O=C(c1cccc(Oc2c([N+](=O)[O-])ccc3c2CCC3OP(=O)(N2CC2)N2CC2)c1)N1CCC(F)(F)C1 (stereo not drawn) [Example 239]
IC50 [2]: 1060 nM

O=C(c1cccc(Oc2c([N+](=O)[O-])ccc3c2CCC3OP(=O)(N2CC2)N2CC2)c1)N1CCCC1 (stereo not drawn) [Example 240]
IC50 [2]: 1150 nM

O=C(c1cccc(Oc2c([N+](=O)[O-])ccc3c2CCC3OP(=O)(N2CC2)N2CC2)c1)N1CCC(F)(F)C1 (stereo not drawn) [Example 242]
IC50 [2]: 1270 nM

O=C(c1cccc(Oc2c([N+](=O)[O-])ccc3c2CCC3OP(=O)(N2CC2)N2CC2)c1)N1CCC(F)(F)CC1 (stereo not drawn) [Example 244]
IC50 [2]: 834 nM

O=C(c1cccc(Oc2c([N+](=O)[O-])ccc3c2CCC3OP(=O)(N2CC2)N2CC2)c1)N1CCC1 (stereo not drawn) [Example 246]
IC50 [2]: 522 nM

O=[N+]([O-])c1ccc2c(c1Oc1cccc(-c3ncccn3)c1)CCC2OP(=O)(N1CC1)N1CC1 (stereo not drawn) [Example 301]
IC50 [2]: 3730 nM

Cc1noc(-c2cccc(Oc3c([N+](=O)[O-])ccc4c3CCC4OP(=O)(N3CC3)N3CC3)c2)n1 (stereo not drawn) [Example 304]
IC50 [2]: 2130 nM

O=C1OCCN1c1cccc(Oc2c([N+](=O)[O-])ccc3c2CCC3OP(=O)(N2CC2)N2CC2)c1 (stereo not drawn) [Example 407]
IC50 [2]: 380 nM

O=C1COCCN1c1cccc(Oc2c([N+](=O)[O-])ccc3c2CCC3OP(=O)(N2CC2)N2CC2)c1 (stereo not drawn) [Example 411]
IC50 [1]: 10 to 50 nM

O=C1CCCN1c1cccc(Oc2c([N+](=O)[O-])ccc3c2CCC3OP(=O)(N2CC2)N2CC2)c1 (stereo not drawn) [Example 413]
IC50 [2]: 1180 nM
